{"source": "paper PMC7316778", "about": "(Nature Communications, 2020)", "key": {"FES^S700C HL-60 cells": {"system": "FES^S700C HL-60 cells", "assay": "Proliferation ratio during macrophage differentiation", "format": "cell-based, human", "details": "for Proliferation ratio: Figure 6e, S700C", "method": "(§1) Cells were pretreated with vehicle or WEL028 (100 or 1000 nM, 1 h) prior to induction of differentiation towards monocytes/macrophages with PMA (16 nM, 48 h). Medium was refreshed with growth medium containing WEL028 and PMA after 24 h to maintain full FES inhibition. […] Threshold for CD11b-positive cells was determined using isotype control antibody. […] Kinases with native cysteine at DFG-1 position are shown in bold. All data represent means ± SEM.\n(§2) Cell lines were purchased at ATCC (HEK293T: ATCC® CRL-11268™, U2OS: ATCC® HTB-96™, HL-60: ATCC® CCL-240™) and were tested on regular basis for mycoplasma contamination. Cultures were discarded after 2–3 months of use. HEK293T (human embryonic kidney) and U2OS (human osteosarcoma) cells were cultured at 37 °C under 7% CO2 in DMEM containing phenol red, stable glutamine, 10% (v/v) high iron newborn calf serum (Seradigm), penicillin and streptomycin (200 μg/mL each; Duchefa). Medium was refreshed every 2–3 days and cells were passaged two times a week at 80–90% confluence. HL-60 (human promyeloblast) cells were cultured at 37 °C under 5% CO2 in HEPES-supplemented RPMI containing phenol red, stable glutamine, 10% (v/v) fetal calf serum (Biowest), penicillin and streptomycin (200 μg/mL each), unless stated otherwise. Cell density was maintained between 0.2 × 10^6 and 2.0 × 10^6 cells/mL. Cell viability was assessed by Trypan Blue exclusion and quantification using a TC20™ Automated Cell Counter (Bio-Rad)."}, "WT HL-60 cells": {"system": "WT HL-60 cells", "assay": "Proliferation ratio during macrophage differentiation", "format": "cell-based, human", "details": "Figure 6e", "method": "as §1, §2"}, "CAMKK1 (CAMKKA)": {"target": "CAMKK1 (CAMKKA) (Homo sapiens, UniProt Q8N5S9)", "sequence (Q8N5S9 whole entry)": "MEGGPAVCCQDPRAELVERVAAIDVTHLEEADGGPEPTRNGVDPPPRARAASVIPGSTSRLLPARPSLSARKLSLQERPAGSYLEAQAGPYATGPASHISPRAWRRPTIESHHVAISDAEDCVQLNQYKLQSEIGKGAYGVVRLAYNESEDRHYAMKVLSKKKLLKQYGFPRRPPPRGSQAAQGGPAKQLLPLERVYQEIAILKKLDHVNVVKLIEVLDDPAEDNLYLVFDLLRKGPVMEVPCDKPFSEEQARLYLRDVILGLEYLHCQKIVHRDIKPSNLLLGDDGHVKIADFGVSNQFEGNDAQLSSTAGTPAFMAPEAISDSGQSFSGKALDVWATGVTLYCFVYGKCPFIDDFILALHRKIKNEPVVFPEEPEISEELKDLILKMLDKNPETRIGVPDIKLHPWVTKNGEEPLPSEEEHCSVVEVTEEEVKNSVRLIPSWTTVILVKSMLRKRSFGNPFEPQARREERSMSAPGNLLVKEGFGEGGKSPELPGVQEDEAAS", "assay": "SelectScreen kinase assay"}, "CDC42 BPB (MRCKB)": {"target": "CDC42 BPB (MRCKB) (Homo sapiens, UniProt Q9Y5S2)", "sequence (Q9Y5S2 whole entry)": "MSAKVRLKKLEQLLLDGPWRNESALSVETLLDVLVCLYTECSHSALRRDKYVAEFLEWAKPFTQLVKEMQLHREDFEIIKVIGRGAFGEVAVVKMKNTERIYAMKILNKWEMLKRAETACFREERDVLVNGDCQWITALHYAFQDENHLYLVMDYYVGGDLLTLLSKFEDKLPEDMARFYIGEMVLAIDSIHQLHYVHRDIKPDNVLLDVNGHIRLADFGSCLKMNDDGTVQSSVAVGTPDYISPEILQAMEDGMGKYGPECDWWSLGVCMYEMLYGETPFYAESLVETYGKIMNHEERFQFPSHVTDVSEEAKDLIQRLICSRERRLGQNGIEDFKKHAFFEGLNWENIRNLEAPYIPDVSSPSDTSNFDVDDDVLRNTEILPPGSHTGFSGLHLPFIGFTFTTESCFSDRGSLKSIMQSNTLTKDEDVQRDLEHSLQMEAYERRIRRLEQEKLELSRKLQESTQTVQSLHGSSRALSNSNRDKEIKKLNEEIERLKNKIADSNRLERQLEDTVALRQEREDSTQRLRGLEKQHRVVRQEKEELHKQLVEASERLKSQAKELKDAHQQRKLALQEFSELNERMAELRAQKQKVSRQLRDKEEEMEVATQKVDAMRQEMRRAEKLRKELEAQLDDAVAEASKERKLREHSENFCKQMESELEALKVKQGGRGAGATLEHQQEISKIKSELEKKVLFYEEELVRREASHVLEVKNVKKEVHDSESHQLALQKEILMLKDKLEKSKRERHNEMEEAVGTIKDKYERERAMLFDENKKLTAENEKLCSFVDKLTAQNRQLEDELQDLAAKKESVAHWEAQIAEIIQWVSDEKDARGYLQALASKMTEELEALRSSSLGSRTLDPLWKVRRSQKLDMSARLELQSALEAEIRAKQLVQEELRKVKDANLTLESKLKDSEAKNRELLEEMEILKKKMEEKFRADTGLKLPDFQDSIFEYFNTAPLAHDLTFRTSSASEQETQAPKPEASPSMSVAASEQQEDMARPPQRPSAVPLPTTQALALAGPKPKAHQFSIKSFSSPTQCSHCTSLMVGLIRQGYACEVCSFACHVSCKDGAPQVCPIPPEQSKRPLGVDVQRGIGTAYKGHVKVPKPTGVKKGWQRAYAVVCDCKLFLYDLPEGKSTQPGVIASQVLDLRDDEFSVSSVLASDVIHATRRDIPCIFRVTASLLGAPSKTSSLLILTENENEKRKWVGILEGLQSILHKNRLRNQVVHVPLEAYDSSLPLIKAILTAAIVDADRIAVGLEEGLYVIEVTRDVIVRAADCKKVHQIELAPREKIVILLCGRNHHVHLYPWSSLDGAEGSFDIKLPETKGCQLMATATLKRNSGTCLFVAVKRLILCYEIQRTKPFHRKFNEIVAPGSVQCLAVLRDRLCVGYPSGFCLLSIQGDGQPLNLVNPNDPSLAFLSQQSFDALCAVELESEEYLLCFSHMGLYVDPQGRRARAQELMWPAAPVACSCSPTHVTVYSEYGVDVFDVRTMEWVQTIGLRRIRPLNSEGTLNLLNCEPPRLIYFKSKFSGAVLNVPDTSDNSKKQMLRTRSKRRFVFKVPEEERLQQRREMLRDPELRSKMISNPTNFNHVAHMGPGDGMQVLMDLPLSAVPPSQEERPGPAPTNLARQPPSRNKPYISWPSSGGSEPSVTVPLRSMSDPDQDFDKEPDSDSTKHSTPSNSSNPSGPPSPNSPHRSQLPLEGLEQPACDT", "assay": "SelectScreen kinase assay", "details": "1 h, 1 μM WEL028, 1 h preincubation"}, "[1]": {"target": "T1, MAP3K7/MAP3K7IP1 (TAK1-TAB1) (Homo sapiens, UniProt O43318)", "T1 sequence (O43318 1-303 limits assumed)": "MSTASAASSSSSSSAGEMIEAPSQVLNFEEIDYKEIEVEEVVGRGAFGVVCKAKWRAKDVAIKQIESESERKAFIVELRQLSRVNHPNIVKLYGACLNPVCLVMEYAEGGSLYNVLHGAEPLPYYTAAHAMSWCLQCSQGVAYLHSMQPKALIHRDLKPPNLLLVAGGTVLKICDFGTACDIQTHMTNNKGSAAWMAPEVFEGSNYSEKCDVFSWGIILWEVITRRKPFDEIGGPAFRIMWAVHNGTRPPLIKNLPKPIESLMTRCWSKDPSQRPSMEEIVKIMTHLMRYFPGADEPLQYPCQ", "T1 sequence (Q15750 437-504 partner limits assumed)": "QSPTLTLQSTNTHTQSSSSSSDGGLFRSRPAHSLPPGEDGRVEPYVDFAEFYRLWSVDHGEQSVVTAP", "assay": "SelectScreen kinase assay"}, "NEK2": {"target": "NEK2 (Homo sapiens, UniProt P51955)", "sequence (P51955 whole entry)": "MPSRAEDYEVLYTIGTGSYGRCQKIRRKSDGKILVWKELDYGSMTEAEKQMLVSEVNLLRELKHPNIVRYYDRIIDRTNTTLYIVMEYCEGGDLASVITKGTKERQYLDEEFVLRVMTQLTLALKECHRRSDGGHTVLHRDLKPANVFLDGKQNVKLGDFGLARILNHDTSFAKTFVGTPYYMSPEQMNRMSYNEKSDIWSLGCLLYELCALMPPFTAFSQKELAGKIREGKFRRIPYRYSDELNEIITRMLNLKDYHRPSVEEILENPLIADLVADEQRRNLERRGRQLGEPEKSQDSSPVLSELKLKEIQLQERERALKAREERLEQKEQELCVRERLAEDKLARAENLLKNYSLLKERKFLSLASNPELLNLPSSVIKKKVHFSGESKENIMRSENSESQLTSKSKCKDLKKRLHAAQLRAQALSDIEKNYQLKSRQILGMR", "assay": "SelectScreen kinase assay"}, "NTRK2 (TRKB)": {"target": "NTRK2 (TRKB) (Homo sapiens, UniProt Q16620)", "sequence (Q16620 32-822)": "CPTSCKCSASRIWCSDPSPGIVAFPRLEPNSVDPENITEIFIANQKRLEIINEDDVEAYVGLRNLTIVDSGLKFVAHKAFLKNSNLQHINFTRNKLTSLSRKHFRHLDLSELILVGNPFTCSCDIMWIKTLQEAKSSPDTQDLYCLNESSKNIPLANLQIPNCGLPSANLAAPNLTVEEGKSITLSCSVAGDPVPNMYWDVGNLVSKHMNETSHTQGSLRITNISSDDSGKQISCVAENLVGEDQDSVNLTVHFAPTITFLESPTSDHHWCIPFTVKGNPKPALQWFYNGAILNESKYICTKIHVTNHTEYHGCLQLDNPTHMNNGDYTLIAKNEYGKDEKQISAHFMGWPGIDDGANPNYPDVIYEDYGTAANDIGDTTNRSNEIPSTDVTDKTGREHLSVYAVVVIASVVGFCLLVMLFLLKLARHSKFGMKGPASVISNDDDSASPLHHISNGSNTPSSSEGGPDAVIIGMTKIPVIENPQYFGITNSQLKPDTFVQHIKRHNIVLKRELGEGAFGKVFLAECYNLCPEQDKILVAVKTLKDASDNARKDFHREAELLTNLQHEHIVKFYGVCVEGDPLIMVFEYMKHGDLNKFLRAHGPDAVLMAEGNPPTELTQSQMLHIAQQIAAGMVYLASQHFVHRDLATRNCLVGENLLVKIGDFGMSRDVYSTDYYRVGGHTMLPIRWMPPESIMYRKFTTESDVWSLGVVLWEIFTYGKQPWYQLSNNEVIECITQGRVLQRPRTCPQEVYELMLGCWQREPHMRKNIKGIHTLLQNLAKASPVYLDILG", "assay": "SelectScreen kinase assay"}, "PHKG2": {"target": "PHKG2 (Homo sapiens, UniProt P15735)", "sequence (P15735 whole entry)": "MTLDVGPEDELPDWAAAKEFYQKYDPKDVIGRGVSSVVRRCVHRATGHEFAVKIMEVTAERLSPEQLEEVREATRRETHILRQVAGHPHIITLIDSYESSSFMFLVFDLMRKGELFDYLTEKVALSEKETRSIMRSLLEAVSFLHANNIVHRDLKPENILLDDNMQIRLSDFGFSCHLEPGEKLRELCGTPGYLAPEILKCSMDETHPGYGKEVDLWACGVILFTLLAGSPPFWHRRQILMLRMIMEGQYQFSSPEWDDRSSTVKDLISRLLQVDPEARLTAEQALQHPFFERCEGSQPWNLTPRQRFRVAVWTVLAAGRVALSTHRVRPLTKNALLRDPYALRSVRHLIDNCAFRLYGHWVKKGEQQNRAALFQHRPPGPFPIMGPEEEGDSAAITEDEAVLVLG", "assay": "SelectScreen kinase assay"}, "PRKCH (PKC eta)": {"target": "PRKCH (PKC eta) (Homo sapiens, UniProt P24723)", "sequence (P24723 whole entry)": "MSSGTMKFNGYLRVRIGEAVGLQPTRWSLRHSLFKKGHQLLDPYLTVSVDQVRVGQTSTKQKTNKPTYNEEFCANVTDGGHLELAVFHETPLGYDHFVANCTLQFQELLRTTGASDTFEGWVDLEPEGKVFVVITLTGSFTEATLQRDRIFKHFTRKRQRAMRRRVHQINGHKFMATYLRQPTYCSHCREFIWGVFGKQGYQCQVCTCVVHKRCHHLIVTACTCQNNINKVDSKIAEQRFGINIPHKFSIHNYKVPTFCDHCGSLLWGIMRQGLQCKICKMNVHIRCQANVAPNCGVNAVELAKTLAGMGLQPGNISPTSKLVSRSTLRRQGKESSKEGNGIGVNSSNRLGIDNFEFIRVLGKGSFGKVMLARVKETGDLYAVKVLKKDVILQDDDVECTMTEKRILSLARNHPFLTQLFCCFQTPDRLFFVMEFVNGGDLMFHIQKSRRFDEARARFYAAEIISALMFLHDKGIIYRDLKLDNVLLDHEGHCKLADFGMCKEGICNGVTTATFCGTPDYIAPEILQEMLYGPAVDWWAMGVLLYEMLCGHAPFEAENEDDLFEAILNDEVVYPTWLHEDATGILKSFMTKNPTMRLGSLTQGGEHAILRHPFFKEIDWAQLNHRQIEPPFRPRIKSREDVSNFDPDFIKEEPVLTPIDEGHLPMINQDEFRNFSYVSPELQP", "assay": "SelectScreen kinase assay", "details": "1 h, 1 μM WEL028, 1 h preincubation"}, "TTK": {"target": "T2, TTK (Homo sapiens, UniProt P33981)", "T2 sequence (P33981 1-857)": "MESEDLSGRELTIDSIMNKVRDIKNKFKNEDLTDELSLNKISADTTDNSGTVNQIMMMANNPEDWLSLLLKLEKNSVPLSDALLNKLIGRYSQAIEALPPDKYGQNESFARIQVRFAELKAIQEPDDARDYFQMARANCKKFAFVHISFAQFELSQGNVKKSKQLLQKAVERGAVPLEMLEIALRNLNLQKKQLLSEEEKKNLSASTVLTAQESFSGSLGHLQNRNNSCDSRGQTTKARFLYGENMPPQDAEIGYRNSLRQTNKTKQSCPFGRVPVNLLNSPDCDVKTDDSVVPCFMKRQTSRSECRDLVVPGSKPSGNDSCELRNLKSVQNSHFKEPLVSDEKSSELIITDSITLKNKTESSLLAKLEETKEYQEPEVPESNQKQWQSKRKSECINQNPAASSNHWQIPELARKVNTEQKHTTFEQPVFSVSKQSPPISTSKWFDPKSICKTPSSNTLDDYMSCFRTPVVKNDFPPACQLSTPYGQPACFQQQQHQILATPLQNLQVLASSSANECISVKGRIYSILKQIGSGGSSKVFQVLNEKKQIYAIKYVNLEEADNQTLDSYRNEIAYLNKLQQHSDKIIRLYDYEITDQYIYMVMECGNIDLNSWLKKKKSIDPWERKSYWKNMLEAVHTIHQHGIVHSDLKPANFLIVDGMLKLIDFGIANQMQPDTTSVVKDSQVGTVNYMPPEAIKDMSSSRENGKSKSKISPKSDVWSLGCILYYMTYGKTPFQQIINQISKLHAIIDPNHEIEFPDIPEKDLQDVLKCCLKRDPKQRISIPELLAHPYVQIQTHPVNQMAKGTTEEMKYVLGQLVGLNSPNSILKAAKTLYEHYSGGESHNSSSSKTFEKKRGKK", "assay": "SelectScreen kinase assay"}, "[2]": {"details": "1 h, 1 μM WEL028, 1 h preincubation"}}, "note": "pIC50: −log10 of the molar value. Several values for one entry are separate records, joined by “and”; a condition that tells them apart may be missing. Equal entries are not always repeated. Where two headings read alike, the source gives them in different places."}
{"compound": "C#CCOc1ccc(Nc2ncc(Cl)c(Nc3ccccc3NC(=O)C=C)n2)c(OC)c1", "note": "[Compound 6]", "values": [{"measurement": "Cell proliferation", "setting": "FES^S700C HL-60 cells; 100 nM WEL028 vs vehicle", "result": "decreased to identical levels"}, {"measurement": "Cell proliferation", "setting": "FES^S700C HL-60 cells; 1 µM WEL028", "result": "less pronounced decrease in proliferation"}, {"measurement": "Proliferation ratio", "setting": "FES^S700C HL-60 cells; WEL028 100 nM", "result": "1.219 and 1.226 and 1.503"}, {"measurement": "Proliferation ratio", "setting": "FES^S700C HL-60 cells; WEL028 1 µM", "result": "2.372 and 2.5075 and 3.084"}, {"measurement": "Proliferation ratio", "setting": "WT HL-60 cells; WEL028 100 nM", "result": "1.995 and 1.877 and 1.706"}, {"measurement": "Proliferation ratio", "setting": "WT HL-60 cells; WEL028 1 µM", "result": "2.7225 and 2.805 and 3.0525"}, {"measurement": "inhibition at 1 µM", "setting": "CAMKK1 (CAMKKA); [2]", "result": 22, "unit": "%"}, {"measurement": "Inhibition at 1 µM (%)", "setting": "CAMKK1 (CAMKKA); CAMKK1 (CAMKKA), 1 µM, LanthaScreen Binding, listed as WEL028, 1 µM", "result": 24, "unit": "%"}, {"measurement": "inhibition at 1 µM", "setting": "CAMKK1 (CAMKKA); read-out: Inhibition at 1 µM (%), CAMKK1 (CAMKKA), 1 µM, LanthaScreen Binding", "result": 20, "unit": "%"}, {"measurement": "inhibition at 1 µM", "setting": "CDC42 BPB (MRCKB)", "result": 6, "unit": "%"}, {"measurement": "inhibition at 1 µM", "setting": "[1]; [2]", "result": 13, "unit": "%"}, {"measurement": "Inhibition at 1 µM (%)", "setting": "[1]; MAP3K7/MAP3K7IP1 (TAK1-TAB1), 1 µM, LanthaScreen Binding, listed as WEL028, 1 µM", "result": 15, "unit": "%"}, {"measurement": "inhibition at 1 µM", "setting": "[1]; read-out: Inhibition at 1 µM (%), MAP3K7/MAP3K7IP1 (TAK1-TAB1), 1 µM, LanthaScreen Binding", "result": 11, "unit": "%"}, {"measurement": "inhibition at 1 µM", "setting": "NEK2; [2]", "result": 12, "unit": "%"}, {"measurement": "Inhibition at 1 µM (%)", "setting": "NEK2; NEK2, 1 µM, ZLYTE, ATP Km app", "result": 21, "unit": "%"}, {"measurement": "inhibition at 1 µM", "setting": "NTRK2 (TRKB); [2]", "result": 5, "unit": "%"}, {"measurement": "Inhibition at 1 µM (%)", "setting": "NTRK2 (TRKB); NTRK2 (TRKB), 1 µM, ZLYTE, ATP Km app, listed as WEL028, 1 µM", "result": "0% and 9%"}, {"measurement": "inhibition at 1 µM", "setting": "PHKG2; [2]", "result": 0, "unit": "%"}, {"measurement": "Inhibition at 1 µM (%)", "setting": "PHKG2; PHKG2, 1 µM, ZLYTE, ATP Km app", "result": 11, "unit": "%"}, {"measurement": "inhibition at 1 µM", "setting": "PRKCH (PKC eta)", "result": -4, "unit": "%"}, {"measurement": "pIC50", "setting": "TTK", "result": 6.20}, {"measurement": "Inhibition at 1 µM (%)", "setting": "TTK; 1 µM, LanthaScreen Binding, listed as WEL028, 1 µM", "result": 76, "unit": "%"}, {"measurement": "inhibition at 1 µM", "setting": "TTK; [2]", "result": 77, "unit": "%"}, {"measurement": "Apparent fold selectivity", "setting": "TTK; IC50 on that kinase divided by IC50 on FES^S700C", "result": 152, "unit": "fold"}, {"measurement": "inhibition at 1 µM", "setting": "TTK; read-out: Inhibition at 1 µM (%), 1 µM, LanthaScreen Binding", "result": 77, "unit": "%"}]}
